Holding throughout (assay): Assay B: in vitro antibacterial activity, broth microdilution MIC (NCCLS)
Holding throughout (type): cell-based
For orientation: In broth dilution the organism is exposed to a series of concentrations in liquid medium.

In one assay the test system is Escherichia coli JUHL. The settings on record: Table 2, Assay B, cation-adjusted Mueller Hinton broth, 35° C., 16 to 20 hr; code D = Escherichia coli JUHL; unit assumed. The procedure: (§1) Assay B. Determination of Biological Activity In Vitro Assay of Antibacterial Activity
(§2) Representative compounds of the invention were assayed in vitro for antibacterial activity. The susceptibilities of aerobic, nonfastidious species were determined visually by broth microdilution as described by the National Committee for Clinical Laboratory Standards (NCCLS) (National Committee for Clinical Laboratory Standards. 1997. Methods for dilution antimicrobial susceptibility tests for bacteria that grow aerobically. Approved standard M7-A4. National Committee for Clinical Laboratory Standards. Wayne, Pa.). In brief, serial two-fold dilutions of test compounds were made in cation-adjusted Mueller Hinton broth at two-times the final concentration. Inocula were prepared from overnight cultures of test strains. Tests were inoculated with a suspension of bacteria in Mueller Hinton broth to achieve a final density of approximately 5×10^5 CFU/mL. Tests were incubated at 35° C. in ambient air for 16 to 20 hr. Minimum Inhibitory Concentrations (MICs) were determined as the lowest drug concentration completely inhibiting growth. Ciprofloxacin was included as a control. For testing S. pneumoniae, the cation-adjusted Mueller Hinton broth was supplemented with 3% lysed horse blood and the incubation period was extended to 20 to 24 hr. For testing H. influenzae, the cation-adjusted Mueller Hinton broth was supplemented with 5 g/L yeast extract, […] and 15 mg/L NAD and incubation was extended to 20 to 24 hr..

Assay [1] has as its system Staphylococcus aureus ATCC 6538P. The following applies: Table 2, Assay B, cation-adjusted Mueller Hinton broth, 35° C., 16 to 20 hr; code A = Staphylococcus aureus ATCC 6538P; unit assumed. The procedure: as §1, §2
Assay [2] deals with Enterococcus faecalis PIU 1967. The following applies: Table 2, Assay B, cation-adjusted Mueller Hinton broth, 35° C., 16 to 20 hr; code B = Enterococcus faecalis PIU 1967; unit assumed. The protocol: as §1, §2
For assay [3], the system named is Streptococcus pneumoniae ATCC 6303. The settings on record: Table 2, Assay B, Mueller Hinton broth with 3% lysed horse blood, 20 to 24 hr; code F = Streptococcus pneumoniae ATCC 6303; unit assumed. The protocol: as §1, §2
Assay [4] concerns Haemophilus influenzae DILL AMP R. The following applies: Table 2, Assay B, Mueller Hinton broth with yeast extract, hematin and NAD, 20 to 24 hr; code E = Haemophilus influenzae DILL AMP R; unit assumed. The protocol: as §1, §2

Experimental findings from patent publication US20020049223A1, “Quinoline and naphthyridine carboxylic acid antibacterials” (priority 1999, published 2002) are described below.

Compound `COc1c(-c2cc3c(s2)CCC(=O)C3)ccc2c(=O)c(C(=O)O)cn(C3CC3)c12` [Example 53, 1-cyclopropyl-8-methoxy-4-oxo-7-(5-oxo-4,5,6,7-tetrahydro-1-benzothien-2-yl)-1,4-dihydro-3-quinolinecarboxylic acid] displayed an Antibacterial Activity (MIC's), D in the assay on Escherichia coli JUHL of 8 µg/mL. This compound came in with an Antibacterial Activity (MIC's), A in assay [1] of 0.06 µg/mL. For the same compound, in assay [2], the Antibacterial Activity (MIC's), B worked out at 2 µg/mL. The Antibacterial Activity (MIC's), F in assay [3] was 0.5 µg/mL. The compound also gave an Antibacterial Activity (MIC's), E in assay [4] of 1 µg/mL.

On to `COc1c(-c2cc3c(s2)CCC(=NO)C3)ccc2c(=O)c(C(=O)O)cn(C3CC3)c12` [Example 55, 1-cyclopropyl-7-((5E/Z)-5-(hydroxyimino)-4,5,6,7-tetrahydro-1-benzothien-2-yl)-8-methoxy-4-oxo-1,4-dihydro-3-quinolinecarboxylic acid], for which the Antibacterial Activity (MIC's), D in the assay on Escherichia coli JUHL turned out to be 0.5 µg/mL. Further, the Antibacterial Activity (MIC's), A in assay [1] was no more than 0.004 µg/mL. This compound yielded an Antibacterial Activity (MIC's), B in assay [2] of 0.125 µg/mL. For the same compound, in assay [3], the Antibacterial Activity (MIC's), F was determined as 0.125 µg/mL. In assay [4], this compound yielded an Antibacterial Activity (MIC's), E of 0.06 µg/mL.

In turn, `CON=C1CCc2sc(-c3ccc4c(=O)c(C(=O)O)cn(C5CC5)c4c3OC)cc2C1` [Example 56, 1-cyclopropyl-8-methoxy-7-((5E/Z)-5-(methoxnimino)-4,5,6,7-tetrahydro-1-benzothien-2-yl)-4-oxo-1,4-dihydro-3-quinolinecarboxylic acid] gave an Antibacterial Activity (MIC's), D in the assay on Escherichia coli JUHL of 4 µg/mL. The compound also returned an Antibacterial Activity (MIC's), A in assay [1] of 0.03 µg/mL. Further, the Antibacterial Activity (MIC's), B in assay [2] was 0.5 µg/mL. In assay [3], this compound displayed an Antibacterial Activity (MIC's), F of 0.125 µg/mL. Also, the Antibacterial Activity (MIC's), E in assay [4] amounted to 0.25 µg/mL.

The compound `COc1c(-c2cc3c(s2)CCC(Br)C3=O)ccc2c(=O)c(C(=O)O)cn(C3CC3)c12` (stereo not drawn) [Example 58, 7-(5-bromo-4-oxo-4,5,6,7-tetrahydro-1-benzothien-2-yl)-1-cyclopropyl-8-methoxy-4-oxo-1,4-dihydro-3-quinolinecarboxylic acid] displayed an Antibacterial Activity (MIC's), D with Escherichia coli JUHL of 0.25 µg/mL. Further, the Antibacterial Activity (MIC's), A in assay [1] stood at 0.004 µg/mL. Besides, the Antibacterial Activity (MIC's), B in assay [2] came to 0.06 µg/mL. Further, the Antibacterial Activity (MIC's), F in assay [3] was 0.06 µg/mL. Also, the Antibacterial Activity (MIC's), E in assay [4] came out at 0.015 µg/mL.

The compound `COc1c(-c2cc3c(s2)CC(=O)CC3)ccc2c(=O)c(C(=O)O)cn(C3CC3)c12` [Example 59, 1-cyclopropyl-8-methoxy-4-oxo-7-(6-oxo-4,5,6,7-tetrahydro-1-benzothien-2-yl)-1,4-dihydro-3-quinolinecarboxylic acid] had an Antibacterial Activity (MIC's), D in the assay on Escherichia coli JUHL of 8 µg/mL. The compound also gave an Antibacterial Activity (MIC's), A in assay [1] of 0.03 µg/mL. Moreover, in assay [2], the Antibacterial Activity (MIC's), B was 1 µg/mL. The Antibacterial Activity (MIC's), F in assay [3] stood at 0.5 µg/mL. This compound also yielded an Antibacterial Activity (MIC's), E in assay [4] of 1 µg/mL.

Take `COc1c(-c2cc3c(s2)C(=O)CCC3)ccc2c(=O)c(C(=O)O)cn(C3CC3)c12` [Example 61, 1-cyclopropyl-8-methoxy-4-oxo-7-(7-oxo-4,5,6,7-tetrahydro-1-benzothien-2-yl)-1,4-dihydro-3-quinolinecarboxylic acid]: in the assay with Escherichia coli JUHL, the Antibacterial Activity (MIC's), D stood at 2 µg/mL. Besides, the Antibacterial Activity (MIC's), A in assay [1] was found to be 0.03 µg/mL. This compound also had an Antibacterial Activity (MIC's), B in assay [2] of 0.25 µg/mL. For the same compound, the Antibacterial Activity (MIC's), F in assay [3] is 0.125 µg/mL. This compound also gave an Antibacterial Activity (MIC's), E in assay [4] of 0.125 µg/mL.

`CON=C1CCCc2cc(-c3ccc4c(=O)c(C(=O)O)cn(C5CC5)c4c3OC)sc21` [Example 63, 1-cyclopropyl-8-methoxy-7-((7E/Z)-7-(methoxyimino)-4,5,6,7-tetrahydro-1-benzothien-2-yl)-4-oxo-1,4-dihydro-3-quinolinecarboxylic acid]: the Antibacterial Activity (MIC's), D in the assay on Escherichia coli JUHL was 0.05 µg/mL. In assay [1], this compound returned an Antibacterial Activity (MIC's), A of 0.015 µg/mL. Further, the Antibacterial Activity (MIC's), B in assay [2] came to 0.125 µg/mL. Further, in assay [3], the Antibacterial Activity (MIC's), F was determined as 0.25 µg/mL. Moreover, the Antibacterial Activity (MIC's), E in assay [4] stood at 0.06 µg/mL.

`CON=C1CCCc2sc(-c3ccc4c(=O)c(C(=O)O)cn(C5CC5)c4c3OC)cc21` [Example 64, 1-cyclopropyl-8-methoxy-7-((4E/Z)-4-(methoxyimino)-4,5,6,7-tetrahydro-1-benzothien-2-yl)-4-oxo-1,4-dihydro-3-quinolinecarboxylic acid] yielded an Antibacterial Activity (MIC's), D in the assay with Escherichia coli JUHL of 2 µg/mL. Moreover, the Antibacterial Activity (MIC's), A in assay [1] stood at 0.03 µg/mL. This compound returned an Antibacterial Activity (MIC's), B in assay [2] of 0.25 µg/mL. In addition, in assay [3], the Antibacterial Activity (MIC's), F was found to be 0.125 µg/mL. In assay [4], this compound yielded an Antibacterial Activity (MIC's), E of 0.25 µg/mL.

Turning to `CON=C1CCc2cc(-c3ccc4c(=O)c(C(=O)O)cn(C5CC5)c4c3OC)sc2C1` [Example 66, 1-cyclopropyl-8-methoxy-7-((6E/Z)-6-(methoxyimino)-4,5,6,7-tetrahydro-1-benzothien-2-yl)-4-oxo-1,4-dihydro-3-quinolinecarboxylic acid], the Antibacterial Activity (MIC's), D in the assay with Escherichia coli JUHL stood at 2 µg/mL. This compound had an Antibacterial Activity (MIC's), A in assay [1] of 0.06 µg/mL. This compound also came in with an Antibacterial Activity (MIC's), B in assay [2] of 0.5 µg/mL. Besides, the Antibacterial Activity (MIC's), F in assay [3] turned out to be 0.5 µg/mL. This compound came in with an Antibacterial Activity (MIC's), E in assay [4] of 0.5 µg/mL.

Take `COc1c(-c2cc3c(s2)CCCC3=NN2CCOCC2)ccc2c(=O)c(C(=O)O)cn(C3CC3)c12` [Example 68, 1-cyclopropyl-8-methoxy-7-((4E/Z)-4-(4-morpholinvlimino)-4,5,6,7-tetrahydro-1-benzothien-2-yl)-4-oxo-1,4-dihydro-3-quinolinecarboxylic acid]: the Antibacterial Activity (MIC's), D in the assay on Escherichia coli JUHL was 0.5 µg/mL. Also, the Antibacterial Activity (MIC's), A in assay [1] turned out to be 0.008 µg/mL. Moreover, the Antibacterial Activity (MIC's), B in assay [2] turned out to be 0.125 µg/mL. Besides, in assay [3], the Antibacterial Activity (MIC's), F amounted to 0.125 µg/mL. For the same compound, in assay [4], the Antibacterial Activity (MIC's), E was found to be 0.06 µg/mL.

The compound `COc1c(-c2cc3c(s2)CCC(CN)C3)ccc2c(=O)c(C(=O)O)cn(C3CC3)c12.Cl` (stereo not drawn) [Example 70, 7-(5-(aminomethyl)-4,5,6,7-tetrahydro-1-benzothien-2-yl)-1-cyclopropyl-8-methoxy-4-oxo-1,4-dihydro-3-quinolinecarboxylic acid hydrochloride] displayed an Antibacterial Activity (MIC's), D with Escherichia coli JUHL of 0.125 µg/mL. Moreover, the Antibacterial Activity (MIC's), A in assay [1] stood at 0.03 µg/mL. For the same compound, the Antibacterial Activity (MIC's), B in assay [2] worked out at 0.03 µg/mL. The compound also came in with an Antibacterial Activity (MIC's), F in assay [3] of 0.06 µg/mL. Moreover, the Antibacterial Activity (MIC's), E in assay [4] was 0.015 µg/mL.

On to `COc1c(-c2cc3c(s2)CCCC3CN)ccc2c(=O)c(C(=O)O)cn(C3CC3)c12` (stereo not drawn) [Example 130, 7-(4-(aminomethyl)-4,5,6,7-tetrahydro-1-benzothien-2-yl)-1-cyclopropyl-8-methoxy-4-oxo-1,4-dihydro-3-quinolinecarboxylic acid], for which the Antibacterial Activity (MIC's), D with Escherichia coli JUHL is 0.06 µg/mL. In addition, the Antibacterial Activity (MIC's), B in assay [2] came to 0.125 µg/mL. The Antibacterial Activity (MIC's), F in assay [3] was determined as 0.125 µg/mL. In assay [4], this compound displayed an Antibacterial Activity (MIC's), E of 0.015 µg/mL.

Turning to `COc1c(-c2cc3c(s2)CCCC3=NOCc2ccncc2)ccc2c(=O)c(C(=O)O)cn(C3CC3)c12` [Example 131, 1-cyclopropyl-8-methoxy-4-oxo-7-((4E/Z)-4-((4-pyridinylmethoxy)imino)-4,5,6,7-tetrahydro-1-benzothien-2-yl)-1,4-dihydro-3-quinolinecarboxylic acid], the Antibacterial Activity (MIC's), D with Escherichia coli JUHL stood at 1 µg/mL. The compound further yielded an Antibacterial Activity (MIC's), B in assay [2] of 0.5 µg/mL. The Antibacterial Activity (MIC's), F in assay [3] is 0.5 µg/mL. In addition, the Antibacterial Activity (MIC's), E in assay [4] was found to be 0.125 µg/mL.
